Literature values as cited in US10357529B2, “Natural formulation for treating hangover” (RVRS, LLC, priority 2016, dated 2019).

Key:
GABAAR = conditions: 1 μM; hippocampus and cultured neurons
BZ-sites on GABAAR = conditions: competitive; read-out: IC50, inhibition of BZ-site [3H]flunitrazepam binding

For `O=C1c2c(O)cc(O)cc2O[C@H](c2cc(O)c(O)c(O)c2)[C@H]1O` [DHM, Dihydromyricetin], the “effect on EtOH-induced potentiation of GABAAR's and GABAAR plasticity” value (GABAAR) is listed as “antagonized both acute EtOH-induced potentiation of GABAAR's and EtOH exposure/withdrawal-induced GABAAR plasticity”, the “EtOH consumption in an intermittent voluntary EtOH intake paradigm” value (rats) is listed as “greatly reduced EtOH consumption” and the “effect on acute alcohol (EtOH) intoxication and withdrawal signs” value (rats; 1 mg/kg, i.p. injection) is listed as “counteracted acute alcohol (EtOH) intoxication”. The IC50 (BZ-sites on GABAAR) was 4.36 µM.
